Measurements reported in US20080139574A1, “Novel quinoline derivatives” (CADILA HEALTHCARE LIMITED, priority 2006, published 2008).
≈ marks a conversion by molar mass, not a printed value.

Legend:
[1] = in vivo; details: male, Sprague-Dawley, rat, po, 30 mg/kg
[2] = system: Streptococcus pneumoniae ATCC 700904; test: In vitro MIC, broth micro dilution; assay type: cell-based; details: ATCC700904
Description: (§1) The in vitro (MIC) antibacterial activity of the compounds against susceptible Gram-positive, multidrug resistant Gram-positive and Gram-negative was tested as growth inhibition with the use of broth micro dilution method according to the guidelines of Clinical and Laboratory Standards Institute (formerly National Committee for Clinical Laboratory Standards). Compounds were dissolved in DMSO and water was added to get stock solution in 80% DMSO. The working solution was prepared by diluting the stock solution 1:10 times in 4-8% DMSO in water or medium, and the dissolved compounds were evaluated in the concentrations of 0.125, 0.25, 0.5, 1, 2, 4, 8, and 16 μg/mL and the concentration was finally expressed in μM.

[3] = system: Staphylococcus aureus ATCC 9144; test: In vitro MIC, broth micro dilution; assay type: cell-based; details: ATCC9144
Description: as §1

[4] = system: Staphylococcus aureus ATCC 700699; test: In vitro MIC, broth micro dilution; assay type: cell-based; details: ATCC700699
Description: as §1

[5] = system: Enterococcus faecalis ATCC 700802; test: In vitro MIC, broth micro dilution; assay type: cell-based; details: ATCC700802
Description: as §1

[6] = system: Enterococcus faecalis ATCC 14506; test: In vitro MIC, broth micro dilution; assay type: cell-based; details: ATCC14506
Description: as §1

[7] = system: Streptococcus pyogens ATCC 14289; test: In vitro MIC, broth micro dilution; assay type: cell-based; details: ATCC14289
Description: as §1

[8] = system: Enterococcus faecalis ATCC 35550; test: In vitro MIC, broth micro dilution; assay type: cell-based; details: ATCC35550
Description: as §1

[9] = system: Staphylococcus aureus ATCC 29213; test: In vitro MIC, broth micro dilution; assay type: cell-based; details: ATCC29213
Description: as §1

[10] = system: Bacillus cereus ATCC 11778; test: In vitro MIC, broth micro dilution; assay type: cell-based; details: ATCC11778
Description: as §1

[11] = system: Klebsiella pneumoniae ATCC 10031; test: In vitro MIC, broth micro dilution; assay type: cell-based; details: ATCC10031
Description: as §1

[12] = system: Pseudomonas aeruginosa ATCC 27853; test: In vitro MIC, broth micro dilution; assay type: cell-based; details: ATCC27853
Description: as §1

[13] = system: Enterococcus faecium ATCC 51559; test: In vitro MIC, broth micro dilution; assay type: cell-based; details: ATCC51559
Description: as §1

[14] = system: Enterococcus faecium ATCC 700221; test: In vitro MIC, broth micro dilution; assay type: cell-based; details: ATCC700221
Description: as §1

[15] = system: Bacillus pumilis ATCC 14884; test: In vitro MIC, broth micro dilution; assay type: cell-based; details: ATCC14884
Description: as §1

[16] = system: Staphylococcus epidermidis ATCC 155; test: In vitro MIC, broth micro dilution; assay type: cell-based; details: ATCC155
Description: as §1

[17] = system: ATCC 700603; test: In vitro MIC, broth micro dilution; assay type: cell-based; details: ATCC700603; Staphylococcus pyogens ATCC 700603
Description: as §1

[18] = system: Staphylococcus aureus ATCC 14154; test: In vitro MIC, broth micro dilution; assay type: cell-based; details: ATCC14154
Description: as §1

[19] = system: Staphylococcus aureus ATCC 25923; test: In vitro MIC, broth micro dilution; assay type: cell-based; details: ATCC25923
Description: as §1

[20] = system: Klebsiella pneumoniae ATCC 700571; test: In vitro MIC, broth micro dilution; assay type: cell-based; details: ATCC700571
Description: as §1

Row | Structure (SMILES) | AUC [1] [ng·h/mL] | MIC [2] [µM] | MIC [3] [µM] | MIC [4] [µM] | MIC [5] [µM] | MIC [6] [µM] | MIC [7] [µM] | MIC [8] [µM] | MIC [9] [µM] | MIC [10] [µM] | MIC [11] [µM] | MIC [12] [µM] | MIC [13] [µM] | MIC [14] [µM] | MIC [15] [µM] | MIC [16] [µM] | MIC [17] [µM] | MIC [18] [µM] | MIC [19] [µM] | MIC [20] [µM] | also measured
1 | COc1ccc2c(c1)CCC(CN1CCN(c3cc4c(cc3F)c(=O)c(C(=O)O)cn4C3CC3)CC1)C2=O (centres unmarked) [Compound 1, 1-Cyclopropyl-6-fluoro-7-[4-(6-methoxy-1-oxo-1,2,3,4-tetrahydro-naphthalen-2-ylmethyl)-piperazin-1-yl]-4-oxo-1,4-dihydro-quinoline-3-carboxylic acid] | 85800 ± 39900 | 3.12 (≈ 1.62 µg/mL) | 1.56 (≈ 0.812 µg/mL) | > 50 | 12.5 (≈ 6.49 µg/mL) | 12.5 (≈ 6.49 µg/mL) | 1.56 (≈ 0.812 µg/mL) | 3.12 (≈ 1.62 µg/mL) | 3.12 (≈ 1.62 µg/mL) | 3.12 (≈ 1.62 µg/mL) | ≤ 0.391 | 3.12 (≈ 1.62 µg/mL) | > 50 | 25 (≈ 13 µg/mL) | 1.56 (≈ 0.812 µg/mL) | 0.781 (≈ 0.406 µg/mL) | 12.5 (≈ 6.49 µg/mL) | 1.56 (≈ 0.812 µg/mL) | 1.56 (≈ 0.812 µg/mL) | 6.25 (≈ 3.25 µg/mL) | Cmax [1]: 10600 ± 2610 ng/mL; Tmax [1]: 4 h; half-life [1]: 9.55 ± 2.83 h
2 | O=C(O)c1cn(C2CC2)c2cc(N3CCN(CC4CCOc5cc(Cl)ccc5C4=O)CC3)c(F)cc2c1=O (centres unmarked) [Compound 6, 7-[4-(8-Chloro-5-oxo-2,3,4,5-tetrahydro-benzo[b]oxepin-4-ylmethyl)-piperazin-1-yl]-1-cyclopropyl-6-fluoro-4-oxo-1,4-dihydro-quinoline-3-carboxylic acid] | 7400 ± 1780 | 3.12 (≈ 1.69 µg/mL) | 0.781 (≈ 0.422 µg/mL) | 25 (≈ 13.5 µg/mL) | 6.25 (≈ 3.37 µg/mL) | 6.25 (≈ 3.37 µg/mL) | 0.781 (≈ 0.422 µg/mL) | 6.25 (≈ 3.37 µg/mL) | 1.56 (≈ 0.844 µg/mL) | 1.56 (≈ 0.844 µg/mL) | ≤ 0.391 | 0.781 (≈ 0.422 µg/mL) | 50 (≈ 27 µg/mL) | 50 (≈ 27 µg/mL) | 0.781 (≈ 0.422 µg/mL) | ≤ 0.391 | 12.5 (≈ 6.75 µg/mL) | 1.56 (≈ 0.844 µg/mL) | 0.781 (≈ 0.422 µg/mL) | 1.56 (≈ 0.844 µg/mL) | Cmax [1]: 2360 ± 1070 ng/mL; Tmax [1]: 1.33 ± 0.53 h; half-life [1]: 1.66 ± 0.73 h
3 | CCn1cc(C(=O)O)c(=O)c2cc(F)c(N3CCNCC3)cc21 [Norfloxacin, reference compound] | – | 1.56 (≈ 0.499 µg/mL) | 1.56 (≈ 0.499 µg/mL) | > 50 | 25 (≈ 7.98 µg/mL) | 25 (≈ 7.98 µg/mL) | 3.12 (≈ 0.998 µg/mL) | 6.25 (≈ 2 µg/mL) | 3.12 (≈ 0.998 µg/mL) | 3.12 (≈ 0.998 µg/mL) | ≤ 0.391 | 3.12 (≈ 0.998 µg/mL) | > 50 | > 50 | 6.25 (≈ 2 µg/mL) | 0.781 (≈ 0.249 µg/mL) | > 50 | 3.12 (≈ 0.998 µg/mL) | 3.12 (≈ 0.998 µg/mL) | 6.25 (≈ 2 µg/mL) | –
